Experimental data: PubChem BioAssay (NCI)
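Compound exposure: 48 hours, 5 concentrations, 96-well plates. At the TGI there is no net growth.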

Columns and labels:
Assay in all cases: DTP human tumour cell line panel, 48 h
CAKI-1 renal = tested on: CAKI-1 renal
HCT-15 colon = tested on: HCT-15 colon
MCF7 breast = tested on: MCF7 breast
NCI-H23 lung = tested on: NCI-H23 lung
SF-295 CNS = tested on: SF-295 CNS
SK-MEL-5 melanoma = tested on: SK-MEL-5 melanoma
SN12C renal = tested on: SN12C renal
SNB-19 CNS = tested on: SNB-19 CNS
SNB-75 CNS = tested on: SNB-75 CNS
UACC-257 melanoma = tested on: UACC-257 melanoma
UACC-62 melanoma = tested on: UACC-62 melanoma
MDA-N = tested on: MDA-N
T-47D breast = tested on: T-47D breast

| Compound | TGI (CAKI-1 renal) | TGI (HCT-15 colon) | TGI (MCF7 breast) | TGI (NCI-H23 lung) | TGI (SF-295 CNS) | TGI (SK-MEL-5 melanoma) | TGI (SN12C renal) | TGI (SNB-19 CNS) | TGI (SNB-75 CNS) | TGI (UACC-257 melanoma) | TGI (UACC-62 melanoma) | TGI (MDA-N) | TGI (T-47D breast) |
| --- | --- | --- | --- | --- | --- | --- | --- | --- | --- | --- | --- | --- | --- |
| CSCSCC(CO)NC(=O)/C(C)=C\c1c(C)[nH]c(=O)[nH]c1=O (stereo not given) | > 250 µM | > 250 µM | > 250 µM | > 250 µM | > 250 µM | > 250 µM | > 250 µM | > 250 µM | > 250 µM | > 158 µM | > 250 µM | – | – |
| CN(CCCNC(=O)c1cn(C)c2c1Cc1ccccc1-2)CCCNC(=O)c1cn(C)c2c1Cc1ccccc1-2 | 28.4 µM | 25.2 µM | 25.4 µM | 29.5 µM | 26.2 µM | 28.4 µM | 27 µM | 24.1 µM | – | 18.9 µM | 27.6 µM | 12.3 µM | – |
| CC(=O)OCC(=O)OC[C@H](OCc1ccccc1)[C@@H]1[C@H](OC(C)=O)C(=O)N1Cc1ccccc1 | – | > 100 µM | > 100 µM | > 100 µM | > 100 µM | > 100 µM | > 100 µM | > 100 µM | > 100 µM | > 100 µM | > 100 µM | > 100 µM | – |
| Cc1ccc2c(=O)cc(-c3ccc(C)s3)[nH]c2n1 | > 100 µM | > 37.5 µM | > 100 µM | – | 2.79 µM | 3.41 µM | > 55.9 µM | > 100 µM | > 100 µM | > 100 µM | > 78.1 µM | – | > 66.5 µM |
| CCN(CC)CCN(C)c1ccc(CO)c2c1C(=O)c1ccccc1S2=O (stereo not given) | 26.2 µM | 12.9 µM | > 34.5 µM | 8.29 µM | 28 µM | 6.52 µM | 28.9 µM | 26.9 µM | 31.5 µM | 3.55 µM | 17.6 µM | – | 28.2 µM |
| O=C1NN(Cc2ccccc2)C(=O)N2CCC[C@@H]12 | > 100 µM | > 100 µM | > 100 µM | > 100 µM | > 100 µM | > 100 µM | > 100 µM | > 100 µM | – | > 100 µM | > 100 µM | > 100 µM | > 100 µM |
| Cn1c2ccccc2c(=O)c2c(O)cc3c(c21)C=CC(C)(C)O3 | > 10.1 µM | > 25 µM | > 25 µM | > 25 µM | > 25 µM | > 25 µM | > 25 µM | > 25 µM | 24.9 µM | > 25 µM | > 25 µM | – | – |
| CC1=CC[C@@]2(C)CC[C@](O)(C(C)C)C2C(OC(=O)c2ccccc2)C1 (stereo not given in full) | 44.9 µM | 34.2 µM | 34.4 µM | 38.9 µM | 34.8 µM | 34.9 µM | 44.9 µM | 40.5 µM | 35.8 µM | 35.1 µM | – | – | 42.6 µM |
| O=C(CSCC(=O)N/N=C\c1cccc([N+](=O)[O-])c1)N/N=C\c1cccc([N+](=O)[O-])c1 | 64.4 µM | 67.8 µM | > 100 µM | 31.1 µM | 30.5 µM | > 100 µM | > 100 µM | > 100 µM | 65.6 µM | > 100 µM | > 100 µM | – | > 100 µM |
| Nc1ncnc2c1ncn2C1CCC(CP(=O)(O)O)C1 (stereo not given) | – | > 100 µM | > 100 µM | > 100 µM | > 100 µM | > 100 µM | > 100 µM | > 100 µM | – | > 100 µM | > 100 µM | > 100 µM | > 100 µM |
| O=C(N/N=C/c1cc(Br)cc(Br)c1[O-])c1ccccc1O.O=C(N/N=C/c1cc(Br)cc(Br)c1[O-])c1ccccc1O.[Zn+2] | 7.29 µM | 14.4 µM | – | 3.17 µM | 5.28 µM | 2.58 µM | – | 12.2 µM | 18.8 µM | 10.6 µM | 2.34 µM | – | – |
| CCOC(=O)c1nc2cc(C(F)(F)F)ccc2nc1Nc1ccc(C(=O)OC)s1 | > 100 µM | > 100 µM | – | > 100 µM | > 100 µM | > 100 µM | – | > 100 µM | > 100 µM | > 100 µM | 66.8 µM | – | > 100 µM |
| CCOC(=O)/C(=N/Nc1ccccc1)N1C(=S)C=C(C)NN(C)C1=S | > 100 µM | > 100 µM | > 100 µM | > 100 µM | 84.9 µM | > 100 µM | > 100 µM | > 100 µM | – | > 100 µM | > 100 µM | – | > 100 µM |
| Cc1c(N=C/C=C/c2ccccc2)c(=O)n(-c2ccccc2)n1C | > 100 µM | > 100 µM | 60.5 µM | 69.8 µM | 40.6 µM | 31 µM | 43.4 µM | > 100 µM | – | > 100 µM | 36 µM | 54 µM | 62.4 µM |
